# Measurements reported in patent US11345701B1, “KRAS mutant protein inhibitors” (Jacobio Pharmaceuticals Co., Ltd., priority 2021, dated 2022).
# pIC50: −log10 of the molar value. Like-named read-outs stand apart in the source and are kept apart here.
# Experiments:
# [1] = system: NCI-H358 cells expressing KRAS G12C mutant protein; assay: Phospho-ERK1/2(THR202/TYR204) HTRF assay; assay type: cell-based; settings: 2 hours incubation, read-out: p-ERK IC50
# Method: The NCI-H358 cells in culture medium were seeded in 96-well plates at a concentration of 40,000 cells/well and then put in a 37° C./5% CO2 cell incubator to incubate overnight. […] After 2 hours incubation in a 37° C./5% CO2 cell incubator, the assay medium in 96-well plates was removed, then 50 μL of 1× blocking reagent-supplemented lysis buffer (Cisbio) was added and the plates were incubated at 25° C. for 45 min with shaking. 10 μL of cell lysates from the 96-well plates were transferred to a 384-well plate (Greiner) containing 2.5 μL/well HTRF® pre-mixed antibodies (Cisbio 64AERPEH). Incubate 4 hours at 25° C. and then read HTRF signals on Tecan Spark multimode microplate reader. The data were analyzed using a 4-parameter logistic model to calculate IC50 values.
# HIS-KRAS(G12C) = HIS-KRAS(G12C) (Homo sapiens (Human), UniProt P01116, G12C); assay: SOS1 catalyzed nucleotide exchange assay (TR-FRET); assay type: biochemical; settings: GDP-loaded HIS-KRAS(G12C), 1 hour pre-incubation, TR-FRET
# HIS-KRAS(G12C), sequence (P01116 other isoform, or with tags, fused parts or gaps G12C): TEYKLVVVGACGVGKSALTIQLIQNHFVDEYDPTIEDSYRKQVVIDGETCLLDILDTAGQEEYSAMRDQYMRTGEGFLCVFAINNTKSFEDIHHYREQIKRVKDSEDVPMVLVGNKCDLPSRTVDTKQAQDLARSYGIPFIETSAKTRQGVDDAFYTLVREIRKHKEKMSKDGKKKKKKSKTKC
# Method: TR-FRET signals were then read on Tecan Spark multimode microplate reader. […] TR-FRET ratios for each individual wells were calculated by equation: TR-FRET ratio=(Signal F515/Signal F486)*10000. Then the data were analyzed using a 4-parameter logistic model to calculate IC50 values.
# [2] = Cynomolgus monkey pharmacokinetic study; assay type: in vivo; settings: plasma, cynomolgus monkey; for clearance / Vd: 1 mg/kg, iv; for Vd: read-out: VSS; for AUC(0-t) / Cmax / bioavailability: 3 mg/kg, po; for AUC(0-t): read-out: AUC0-24h; for Cmax: read-out: Cmax; for bioavailability: read-out: Oral BA (F %)
# Method: (§1) The purpose of this study was to evaluate the pharmacokinetic properties of compounds in cynomolgus monkey following single dose administration. The day before administration, monkeys were fasted overnight and free access to water. Four monkeys are needed for each compound and the four monkeys were divided into two groups, group A and group B (one male (♂) and one female (♀) in each group). Monkeys in group A were treated with a single 1 mg/kg dose of compound (iv). Monkeys in group B were treated with a single 3 mg/kg dose of compound (po). For monkeys in group A, blood samples were collected at pre-dose, and at the time point of 0.083, 0.25, 0.5, 1, 2, 4, 6, 8 and 24 h post-dose. For monkeys in group B, blood samples were collected at pre-dose, and at the time point of 0.25, 0.5, 1, 2, 4, 6, 8 and 24 h post-dose. Blood samples were placed on ice until centrifugation to obtain plasma samples. The plasma samples were stored at −80° C. until analysis. The concentration of compound in plasma samples was determined using a LC-MS/MS method.
# [3] = Mouse pharmacokinetic study; assay type: in vivo, Balb/c mouse; settings: plasma, Balb/c mouse (female)
# Method: The purpose of this study was to evaluate the pharmacokinetic properties of compounds in Balb/c mouse (♀) following single dose administration. The day before administration, mice were fasted overnight and free access to water. Six mice were needed for each compound and the six mice were divided into two groups (n=3/group), group A and group B. Mice in group A were treated with a single 3 mg/kg dose of compound (iv). Mice in group B were treated with a single 10 mg/kg dose of compound (po). For each mouse in group A, blood samples were collected at pre-dose, and at the time point of 0.083, 0.25, 0.5, 1, 2, 4, 6, 8 and 24 h post-dose. For each mouse in group B, blood samples were collected at pre-dose, and at the time point of 0.25, 0.5, 1, 2, 3, 4, 6, 8 and 24 h post-dose. Blood samples were placed on ice until centrifugation to obtain plasma samples. The plasma samples were stored at −80° C. until analysis. The concentration of compound in plasma samples was determined using a LC-MS/MS method.
# [4] = Dog pharmacokinetic study; assay type: in vivo, beagle dog; settings: plasma, beagle dog; for clearance / Vd: 1 mg/kg, iv; for Vd: read-out: VSS; for AUC(0-t) / Cmax / bioavailability: 3 mg/kg, po; for AUC(0-t): read-out: AUC0-24h; for Cmax: read-out: Cmax; for bioavailability: read-out: Oral BA (F %)
# Method: as §1, with “beagle dog” for “cynomolgus monkey”, “dogs” for “monkeys”, “beagle dogs were” for “monkeys are”, “male(♂)” for “male (♂)”, “Dogs” for “Monkeys”
smiles,measurement,setting,value
"C=CC(=O)N1CCN(c2nc(=O)n(-c3c(C)ccnc3C(C)C)c3nc(-c4c(N)c(F)c(F)c(F)c4F)c(F)cc23)[C@@H](C)C1 (atropisomer, axis not shown; (P)) [Compound 2-2, (P)-4-((S)-4-acryloyl-2-methylpiperazin-1-yl)-7-(2-amino-3,4,5,6-tetrafluorophenyl)-6-fluoro-1-(2-isopropyl-4-methylpyridin-3-yl)pyrido[2,3-d]pyrimidin-2(1H)-one]",pIC50,[1],6.17
same,pIC50,HIS-KRAS(G12C),7.21
"C=CC(=O)N1CCN(c2nc(=O)n(-c3c(C)ccnc3C(C)C)c3nc(-c4c(F)c(F)c(F)c(N)c4Cl)c(F)cc23)[C@@H](C)C1 (single isomer, unassigned) [Compound 1-1]",pIC50,"[1]; Homo sapiens, NCI-H358, 2 h",7.78
same,pIC50,HIS-KRAS(G12C),8.39
"C=CC(=O)N1CCN(c2nc(=O)n(-c3c(C)ccnc3C(C)C)c3nc(-c4c(F)c(F)c(F)c(N)c4Cl)c(F)cc23)[C@@H](C)C1 (single isomer, unassigned) [Compound 1-2]",pIC50,HIS-KRAS(G12C),6.92
"C=CC(=O)N1CCN(c2nc(=O)n(-c3c(C)ccnc3C(C)C)c3nc(-c4c(N)c(F)c(F)c(F)c4F)c(F)cc23)CC1 (single isomer, unassigned) [Compound 3-1, 4-(4-acryloylpiperazin-1-yl)-7-(2-amino-3,4,5,6-tetrafluorophenyl)-6-fluoro-1-(2-isopropyl-4-methylpyridin-3-yl)pyrido[2,3-d]pyrimidin-2(1H)-one]",pIC50,"[1]; Homo sapiens, NCI-H358, 2 h",7.60
same,pIC50,HIS-KRAS(G12C),8.50
"C=CC(=O)N1CCN(c2nc(=O)n(-c3c(C)ccnc3C(C)C)c3nc(-c4c(N)c(F)c(F)c(F)c4F)c(F)cc23)CC1 (single isomer, unassigned) [Compound 3-2, 4-(4-acryloylpiperazin-1-yl)-7-(2-amino-3,4,5,6-tetrafluorophenyl)-6-fluoro-1-(2-isopropyl-4-methylpyridin-3-yl)pyrido[2,3-d]pyrimidin-2(1H)-one]",pIC50,HIS-KRAS(G12C),6.63
"C=CC(=O)N1CCN(c2nc(=O)n(-c3c(C)ccnc3C(C)C)c3nc(-c4c(N)c(F)c(F)c(F)c4F)c(F)cc23)C[C@H]1C (single isomer, unassigned) [Compound 4-1]",pIC50,"[1]; Homo sapiens, NCI-H358, 2 h",7.39
same,pIC50,HIS-KRAS(G12C),8.48
"C=CC(=O)N1CCN(c2nc(=O)n(-c3c(C)ccnc3C(C)C)c3nc(-c4c(N)c(F)c(F)c(F)c4F)c(F)cc23)C[C@H]1C (single isomer, unassigned) [Compound 4-2]",pIC50,HIS-KRAS(G12C),6.56
"C=CC(=O)N1[C@H](C)CN(c2nc(=O)n(-c3c(C)ccnc3C(C)C)c3nc(-c4c(N)c(F)c(F)c(F)c4F)c(F)cc23)C[C@@H]1C (single isomer, unassigned) [Compound 5-1]",pIC50,[1],7.75
same,pIC50,HIS-KRAS(G12C),8.48
"C=CC(=O)N1[C@H](C)CN(c2nc(=O)n(-c3c(C)ccnc3C(C)C)c3nc(-c4c(N)c(F)c(F)c(F)c4F)c(F)cc23)C[C@@H]1C (single isomer, unassigned) [Compound 5-2]",pIC50,[1],6.11
same,pIC50,HIS-KRAS(G12C),7.02
"C=CC(=O)N1[C@H](C)CN(c2nc(=O)n(-c3c(C)ccnc3C(C)C)c3nc(-c4c(F)c(F)c(F)c(N)c4Cl)c(F)cc23)C[C@@H]1C (single isomer, unassigned) [Compound 7-1]",pIC50,"[1]; Homo sapiens, NCI-H358, 2 h",7.44
same,pIC50,HIS-KRAS(G12C),8.18
"C=CC(=O)N1[C@H](C)CN(c2nc(=O)n(-c3c(C)ccnc3C(C)C)c3nc(-c4c(F)c(F)c(F)c(N)c4Cl)c(F)cc23)C[C@@H]1C (single isomer, unassigned) [Compound 7-2]",pIC50,HIS-KRAS(G12C),6.51
"C=CC(=O)N1CCN(c2nc(=O)n(-c3c(C)ccnc3C(C)C)c3nc(-c4c(O)cccc4F)c(F)cc23)[C@@H](C)C1 [Amg-510, reference compound]",clearance,[2]; female,84.3 mL/min/kg
same,Vd,[2]; female,2.01 L/kg
same,AUC(0-t),[2]; female,241 ng·h/mL
same,Cmax,[2]; female,100 ng/mL
same,bioavailability,[2]; female,41.3%
same,clearance,[2]; male,25.5 mL/min/kg
same,Vd,[2]; male,0.775 L/kg
same,AUC(0-t),[2]; male,214 ng·h/mL
same,Cmax,[2]; male,133 ng/mL
same,bioavailability,[2]; male,11%
same,clearance,"[3]; 3 mg/kg, iv",40.5 mL/min/kg
same,Vd,"[3]; 3 mg/kg, iv, read-out: Vss",1.64 L/kg
same,AUC(0-t),"[3]; 10 mg/kg, po, read-out: AUC0-24 h",1810 ng·h/mL
same,Cmax,"[3]; 10 mg/kg, po, read-out: Cmax",1600 ng/mL
same,bioavailability,"[3]; 10 mg/kg, po, read-out: Oral BA (F %)",43.9%
same,clearance,[4]; female,20.1 mL/min/kg
same,Vd,[4]; female,0.543 L/kg
same,AUC(0-t),[4]; female,404 ng·h/mL
same,Cmax,[4]; female,450 ng/mL
same,bioavailability,[4]; female,16.4%
same,clearance,[4]; male,21.1 mL/min/kg
same,Vd,[4]; male,0.535 L/kg
same,AUC(0-t),[4]; male,1990 ng·h/mL
same,Cmax,[4]; male,1840 ng/mL
same,bioavailability,[4]; male,84.4%
"C=CC(=O)N1CCN(c2nc(=O)n(-c3c(C)ccnc3C(C)C)c3nc(-c4c(N)c(F)c(F)c(F)c4F)c(F)cc23)CC1 [Compound 3, 4-(4-acryloylpiperazin-1-yl)-7-(2-amino-3,4,5,6-tetrafluorophenyl)-6-fluoro-1-(2-isopropyl-4-methylpyridin-3-yl)pyrido[2,3-d]pyrimidin-2(1H)-one]",pIC50,HIS-KRAS(G12C),8.26
"C=CC(=O)N1CCN(c2nc(=O)n(-c3c(C)ccnc3C(C)C)c3nc(-c4c(N)c(F)c(F)c(F)c4F)c(F)cc23)C[C@H]1C [Compound 4, 4-((R)-4-acryloyl-3-methylpiperazin-1-yl)-7-(2-amino-3,4,5,6-tetrafluorophenyl)-6-fluoro-1-(2-isopropyl-4-methylpyridin-3-yl)pyrido[2,3-d]pyrimidin-2(1H)-one]",pIC50,HIS-KRAS(G12C),7.99
"C=CC(=O)N1CCN(c2nc(=O)n(-c3c(C)ccnc3C(C)C)c3nc(-c4c(F)c(F)c(F)c(N)c4Cl)c(F)cc23)C[C@H]1C [Compound 6, 4-((R)-4-acryloyl-3-methylpiperazin-1-yl)-7-(3-amino-2-chloro-4,5,6-trifluorophenyl)-6-fluoro-1-(2-isopropyl-4-methylpyridin-3-yl)pyrido[2,3-d]pyrimidin-2(1H)-one]",pIC50,HIS-KRAS(G12C),7.40
"C=CC(=O)N1[C@H](C)CN(c2nc(=O)n(-c3c(C)ccnc3C(C)C)c3nc(-c4c(F)c(F)c(F)c(N)c4Cl)c(F)cc23)C[C@@H]1C [Compound 7, 4-((3S,5R)-4-acryloyl-3,5-dimethylpiperazin-1-yl)-7-(3-amino-2-chloro-4,5,6-trifluorophenyl)-6-fluoro-1-(2-isopropyl-4-methylpyridin-3-yl)pyrido[2,3-d]pyrimidin-2(1H)-one]",pIC50,HIS-KRAS(G12C),7.76
